Where “and” joins values, the source holds several entries; their conditions need not be identical. Equal entries are not always repeated.
Assays:
MCF-7 cells = experiment: Viability of MCF-7 breast cancer cells; format: cell-based, human
Experimental: (§1) To quantify cell death, around the time when significant and characteristic morphological changes took place, cells were pulse-labeled for 10 minutes with [^3H]thymidine to measure DNA activity as described elsewhere [Tomono, M. and Kiss, Z. (1995), “Ethanol enhances the stimulatory effects of insulin and insulin-like growth factor-I on DNA synthesis in NIH 3T3 fibroblasts,” Biochem. Biophys. Res. Commun. 208, 63-67]. Also, cells were collected as suspensions using trypsin, an established method in cell biology, followed by re-plating of cells in fresh tissue culture medium. If no viable cells were obtained after one week in culture, it meant that the cells at the time of re-plating were dead. Survival values obtained with untreated cells were considered 100%. For the determination of relative number of viable cells after treatments, in most cases the MTT assay was used. This calorimetric assay is based on the ability of living cells, but not dead cells, to reduce 3-(4,5-dimethyl thiazol-2-yl)-2,5-diphenyltetrazolium bromide [Carmichael, J, De Graff, W. G., Gazdar, A. F., Minna, J. D. and Mitchell, J. B. (1987), “Evaluation of tetrazolium-based semi-automated calorimetric assay: Assessment of chemosensitivity testing,” Cancer Res. 47, 936-942]. For this assay, cells were plated in 96-well plates, and the MTT assay was performed both in untreated and treated cell cultures. The MTT assay also was performed at the start of treatments to allow assessment of proliferation rates in the control and treated cell cultures.
About 50% confluent cultures of MCF-7 cells, cultured in 12-well plates in Dulbecco's modified Eagle's medium (DMEM) supplemented with 10% FBS, were either untreated (FIG. 3A), or were treated with 100 μM CCDTHT (CCompound3) for 72 hours (FIG. 3B). […] This experiment was repeated three times with similar results. In some experiments, cells from the CCDTHT-treated cultures were seeded into 96-well plates, and the MTT assay was performed 96 hours later to test for viable cells.
The NIH 3T3 (normal) mouse fibroblast, A431 human epidermoid adenocarcinoma, and MCF-7 human breast cancer cells were cultured in DMEM medium containing 10% FBS. The MEL-28 human melanoma cells were cultured in MEM medium containing 10% FBS. The HT-29 human colon adenocarcinoma cells were cultured in McCoy's 5a medium containing 10% FBS. The A549 human lung carcinoma cells were maintained in Ham's F12K medium containing 10% FBS. Cells were seeded into 96-well plates and treated at ˜70-90% confluency. Two hours before treatments the medium was changed for fresh 10% serum medium, and then the cells were incubated for 72 hours in the presence of 0-200 μM of CCompound1 (●) or CCompound3 (CCDTHT) (▴), as indicated. The MTT assay was used to determine cell viability after treatments. The values, shown in FIGS. 5A-5F and expressed as percent decrease in viability compared to the untreated control cells, are the mean±std. dev. of 8 incubations in one experiment. Similar results were obtained in another experiment.
NIH 3T3, AN3CA, HT-29, MEL-28, and MCF-7 cells were cultured as described earlier. Cells were seeded into 96-well plates; when cells were ˜80-90% confluent, the medium was changed for fresh 10% serum-containing medium, followed by incubations for 72 hours in the absence (□) or presence of 100 μM CCDTHT ? , 2 mM ethanolamine (Etn) ? , or 100 μM CCDTHT+2 mM Etn (▪). The MTT assay was used to determine cell viability. […]

HepG2 cells = experiment: Viability of HepG2 hepatoblastoma cells (MTT assay); format: cell-based, human; details: 50 and 100 μM, 10 days
Experimental: (§2) To quantify cell death, around the time when significant and characteristic morphological changes took place, cells were pulse-labeled for 10 minutes with [^3H]thymidine to measure DNA activity as described elsewhere [Tomono, M. and Kiss, Z. (1995), “Ethanol enhances the stimulatory effects of insulin and insulin-like growth factor-I on DNA synthesis in NIH 3T3 fibroblasts,” Biochem. Biophys. Res. Commun. 208, 63-67]. Also, cells were collected as suspensions using trypsin, an established method in cell biology, followed by re-plating of cells in fresh tissue culture medium. If no viable cells were obtained after one week in culture, it meant that the cells at the time of re-plating were dead. Survival values obtained with untreated cells were considered 100%. For the determination of relative number of viable cells after treatments, in most cases the MTT assay was used. This calorimetric assay is based on the ability of living cells, but not dead cells, to reduce 3-(4,5-dimethyl thiazol-2-yl)-2,5-diphenyltetrazolium bromide [Carmichael, J, De Graff, W. G., Gazdar, A. F., Minna, J. D. and Mitchell, J. B. (1987), “Evaluation of tetrazolium-based semi-automated calorimetric assay: Assessment of chemosensitivity testing,” Cancer Res. 47, 936-942]. For this assay, cells were plated in 96-well plates, and the MTT assay was performed both in untreated and treated cell cultures. […]

U-87 cells = experiment: Viability of U-87 malignant glioma cells (MTT assay); format: cell-based, human; details: 100-200 μM, 72 hours
Experimental: as §2

HaCaT keratinocytes = experiment: Viability of HaCaT keratinocytes; format: cell-based
Experimental: as §1
HaCaT keratinocytes, frequently used immortalized model cells for studying psoriatic keratinocytes, and HTB-157 human fetus lung fibroblasts were cultured in 10% FBS-containing Dulbecco's modified Eagle's medium (DMEM). Cells were distributed in 96-well plates; when cells were 50-60% confluent, the medium was changed for fresh 10% serum-containing medium, followed by incubations for 48 hours in the absence (□) or presence of 50 μM CCDTHT ? , or 100 μM CCDTHT (▪). The MTT assay was used to determine cell viability. […]

## CC[N+](C)(CC)CCOCc1ccc2sc3ccccc3c(=O)c2c1.[I-] [CCDTHT, N,N-diethyl-N-methyl-2-[(9-oxo-9H-thioxanthen-2-yl)methoxy]-ethanaminium iodide]
MCF-7 cells; 0-200 μM, 72 hours, MTT
  decrease in viability, MCF-7: similarly large effects
MCF-7 cells; 100 μM 72 hours, re-seeded, MTT 96 hours later
  viable cells by MTT after re-seeding treated MCF-7 cells: did not detect viable cells
MCF-7 cells; 100 μM, 72 hours, 12-well plates
  morphology / cell death, MCF-7: practically all cells rounded up
HepG2 cells
  sensitivity to the inhibitory actions, HepG2: moderately sensitive
U-87 cells
  number of viable U-87 cells: sharply decrease
HaCaT keratinocytes; 50-100 μM, 48 hours, MTT
  reduction in the number of viable HaCaT cells: 85-98% and 85-100%
HaCaT keratinocytes; Homo sapiens, HaCaT, 48 h, read-out: inhibition of DNA synthesis, HaCaT
  inhibition at 100 µM: ~95%
HaCaT keratinocytes; re-plated after treatment, fresh medium for 1 week
  viable cells after re-plating of treated HaCaT cells: no viable cells were found
